This passage reports IC50 results from publication PMC12484856, “A Self-Assembling Senolytic Prodrug with Enhanced Bioavailability and Selective Activation for Targeting Senescent Retinal Pigment Epithelium” (Biomaterials Research, 2025).

For this assay, the target named is T1, MDM2 (Homo sapiens, UniProt Q00987).
T1 construct: MDM2 (Abcam, ab167941)
Put plainly: fluorescence polarization competition with FITC-p53 peptide. It is filed as binding. From the text:
fluorescence polarization competition with FITC-p53 peptide on MDM2 | analysis of the interaction of N201 with MDM2 instead of with fluorescein isothiocyanate (FITC)–p53.

T1 sequence (Q00987 whole entry): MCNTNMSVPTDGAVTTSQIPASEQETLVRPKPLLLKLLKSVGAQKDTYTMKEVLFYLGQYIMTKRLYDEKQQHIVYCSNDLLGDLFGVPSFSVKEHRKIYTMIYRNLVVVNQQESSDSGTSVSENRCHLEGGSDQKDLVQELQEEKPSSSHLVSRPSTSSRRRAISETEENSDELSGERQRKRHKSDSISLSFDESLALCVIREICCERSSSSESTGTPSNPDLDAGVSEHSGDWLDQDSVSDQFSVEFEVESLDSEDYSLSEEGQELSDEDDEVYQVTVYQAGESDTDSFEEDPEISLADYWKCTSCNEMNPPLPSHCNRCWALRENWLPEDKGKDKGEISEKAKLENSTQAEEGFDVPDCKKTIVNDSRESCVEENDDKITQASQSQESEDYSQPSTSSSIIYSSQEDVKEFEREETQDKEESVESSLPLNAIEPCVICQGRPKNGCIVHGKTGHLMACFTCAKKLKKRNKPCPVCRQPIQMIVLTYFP

For orientation: IC50 means the concentration that inhibits the measured activity by half. Read a high IC50 as a need for much substance. `COc1ccc(C2=NC(c3ccc(Cl)cc3)C(c3ccc(Cl)cc3)N2C(=O)N2CCN(CCO[C@@H]3O[C@H](CO)[C@H](O)[C@H](O)[C@H]3O)CC2)c(OC(C)C)c1` (some centres unmarked) [N201-gal]: the IC50 amounted to 200 nM. As for `COc1ccc(C2=NC(c3ccc(Cl)cc3)C(c3ccc(Cl)cc3)N2C(=O)N2CCN(CCO)CC2)c(OC(C)C)c1` (centres unmarked) [N201], the figure is 130 nM.
